# Results: patent US8802235B2, “Drug and imaging agent delivery compositions and methods” (priority 2012, dated 2014)
# Where two headings read alike, the source gives them in different places.
# Columns and labels:
# [1] = system: 4T1.2 Neu cells; test: In vitro cytotoxicity (resazurin blue), 4T1.2 Neu; assay type: cell-based, murine; conditions: 72 h, Star-GA on GA basis, read-out: IC50s 4T1.2 Neu
# Description: (§1) B16F10 (lymphatically metastatic murine melanoma), MDA-MB-231 (human breast cancer), and HUVEC (normal human endothelial) cell lines, were maintained in Dulbecco's modified Eagle's medium (DMEM) supplemented with 1% L-Glutamine and 10% bovine growth serum in 5% CO2 atmosphere. The HER2-expressing murine breast cancer cell line, 4T1.2 Neu was maintained in DMEM supplemented with 1% L-Glutamine, 10% bovine growth serum, and 500 μg/mL of G418 (geneticin) in 5% CO2 atmosphere. The lymphatically metastatic human melanoma cell line, A2058 was maintained in low sodium bicarbonate (1.5 g/L) containing DMEM supplemented with 1% L-Glutamine, 10% bovine growth serum in 5% CO2 atmosphere.
# (§2) Prior to cell growth inhibition studies, cells were trypsinized and seeded at 3000 cells/well into 96-well tissue culture plates. After 24 hours, geldanamycin, 17-DMAG, 17-AAG, 17-HEAG, Star-GA (GA basis), or melphalan hydrochloride dilutions in 1×PBS (Fisher BioReagents, pH 7.4) with up to 3% DMSO (final well concentration, for the highest drug concentration) were added to the B16F10, A2058, HUVEC, 4T1.2 Neu, or MDA-MB-231 cells (n=8 or 12, 10 μL/well, 8 or 6 concentrations 10^−10 to 10^−3 M, respectively). Solutions of 10% trichloracetic acid was used as a negative control, media was used as a positive control, and 3% DMSO was used as an additional control (n=8 or 12, 10 μL/well). At 72 h post addition, 10 μL of resazurin blue in PBS was added (5 μM final concentration) to each well. After 3 hours, well fluorescence was measured (λex/λem=560/590 nm) (SpectraMax Gemini, Molecular Devices). IC50s were determined using the nonlinear regression curve fit of a one-site competition (GraphPad Prism 10).
# [2] = system: HUVEC cells; test: In vitro cytotoxicity (resazurin blue), HUVEC; assay type: cell-based, human
# Description: as §1, §2
# [3] = system: B16F10 cells; test: cells; assay type: cell-based, murine; conditions: for IC50: read-out: IC50s B16F10
# Description: as §1, §2
# [4] = system: A2058 cells; test: In vitro cytotoxicity (resazurin blue), A2058; assay type: cell-based, human; conditions: read-out: IC50s A2058
# Description: as §1, §2
# [5] = 17-DMAG i.v.; cited from earlier work
# [6] = system: B16F10 tumors; assay type: in vivo; conditions: for B16F10 tumor response: melphalan i.v. 5 mg/kg, 17-DMAG i.v. 15 mg/kg, Star-GA s.c. 15 mg/kg DMAG equivalent, polymer s.c. equivalent dose, vs non-treated
# Description: . The tumors were measured and recorded, the volumes were calculated using the equation: Tumor Volume (mm^3)=0.52×(width)^2×length. When the B16F10 tumors reached 200-350 mm^3 (ca. Days 6-9), mice were randomly divided into five treatment groups: melphalan (i.v., n=5), 17-DMAG (i.v., n=4), star polymer (s.c., n=6), Star-GA (s.c., n=7), or no treatment (n=4) (FIG. 30).
# Mice in the melphalan treatment group were injected once with melphalan (5 mg/kg) intravenously via the tail veil under isoflurane anesthesia. The formulation used to treat mice bearing B16F10 tumors was modified slightly from the product insert for ALKERAN (melphalan hydrochloride) for injections into humans. Melphalan was dissolved in concentrated hydrochloric acid (35-38%) to give a 15 mg/mL solution. The melphalan solution was then aliquoted into vials to give 0.75 mg melphalan/vial, and was dried using a speedvac concentrator (Labconoco) for 1.5 hours at 35° C. followed by 1 hour at ambient temperature. The vials containing dry melphalan hydrochloride were sealed and placed at −20° C. until further use. The reconstituted solution was prepared by first pre-sterilizing propylene glycol, 95% ethanol, and 0.02 g/mL sodium citrate solution, using a sterile syringe fitted with a 0.22 μm sterile filter (Millex GP PES membrane sterile filter, Millipore) into a sterile falcon tube. Then the reconstituted solution was prepared by combining 6 mL sterile propylene glycol, 0.52 mL sterile ethanol (95%), and 3.48 mL sodium citrate solution, and the solution was mixed well and filtered a second time with at 0.22 μm sterile filter. Immediately prior to injection, the 150 μL of the sterile reconstituted solution was rapidly added to the melphalan hydrochloride, the vial was immediately shaken vigorously until dissolved, followed by the rapid addition of 150 μL of sterile saline yielding a 2.5 mg/mL melphalan solution. The melphalan was dosed within 10 to 15 minutes after reconstitution to minimize degradation.
# 17-DMAG was dissolved in sterile DMSO and administered i.v. via the tail vein at a dose of 15 mg/kg (MTD). […]
# [7] = Metastatic analysis of axillary lymph nodes by nodal volume and rtPCR; conditions: one mouse
# Description: The metastatic state of the 4T1.2 Neu tumor model post treatment was assessed by axillary lymph node volume and the nodal HER 2 expression.
# The total RNAs from the frozen lymph node samples were extracted using TriZol reagent (Invitrogen). The first-strand cDNA was synthesized using the Omniscript-RT Kit (QIAGEN, Valencia, Calif.). Primers for the Erbb2 (HER2 RT^2 qpCR primer assay, proprietary primer sequence, QIAGEN) and 18S housekeeping gene (forward: 5′-[sequence]-3′ reverse: 5′-[sequence]-3′) (IDT Inc, Coralville, Iowa) were used. The real-time PCR, in a reaction volume of 25 μL, was performed using the SYBR Green Supermix kit with the Bio-Rad iQ5 system (Hercules, Calif.).
# During the lymph node harvesting, gross visualization of the organs was made to identify any obvious signs of metastases, growths, or toxicities associated with any of the treatments.
# [8] = system: 4T1.2 Neu tumors; test: Anticancer efficacy in 4T1.2 Neu tumor bearing mice; assay type: in vivo; conditions: 17-DMAG i.v. 10 mg/kg, Star-GA s.c. 45 mg/kg
# Source text: During cell preparation of the 4T1.2 Neu cells for implantation, G418 free media was used. Prior to tumor implantation, the hair surrounding the right upper portion of the mouse's chest was removed with depilatory cream. […].
# Seven week old (18-22 g) female Balb/c mice purchased from Jackson Laboratory (Bar Harbor, Me.) were used in this study. On Day 7, when tumors reached 100-250 mm^3, mice were randomly divided into four treatment groups, consisting of no treatment (n=7), 60% […] (n=5), 17-DMAG (n=7), and Star-GA (n=8). The 17-DMAG was dosed at 10 mg/kg i.v. as a 1:1 sterile DMSO:PBS solution. Star-GA was dosed at 45 mg/kg (17-HEAG basis, 15% loading, 300 mg/kg Star-GA conjugate), in sterile 35% DMSO and 65% PBS, which was divided into two peritumoral injections on either side of the mammary tumor. Finally, the 60% […] was dosed at an equivalent star polymer concentration used for the 45 mg/kg Star-GA (255 mg/kg 60% […]), which was divided into two peritumoral injections onto either side of the mammary tumor. Tumor volumes were monitored and reported every two days (FIG. 33).
# To minimize the occurrence of necrotic tails upon dosing 17-DMAG, as observed in the B16F10 in vivo study described in the previous section, 17-DMAG was dosed at 10 mg/kg i.v. in a 1:1 sterile DMSO:PBS solution rather than 15 mg/kg in 100% DMSO.
# [9] = system: MDA-MB-231 cells; test: In vitro cytotoxicity (resazurin blue), MDA-MB-231; assay type: cell-based, human; conditions: 72 h, Star-GA on GA basis, read-out: IC50s MDA-MB-231
# Description: as §1
# Prior to cell growth inhibition studies, cells were trypsinized and seeded at 3000 cells/well into 96-well tissue culture plates. […] After 3 hours, well fluorescence was measured (λex/λem=560/590 nm) (SpectraMax Gemini, Molecular Devices). IC50s were determined using the nonlinear regression curve fit of a one-site competition (GraphPad Prism 10).
# [10] = system: MDA-1986 human head and neck squamous cell carcinoma; test: Head and neck tumor model, efficacy of sugar-NO1; assay type: in vivo, female nude mice
# [11] = system: MDA-1986 cells; test: Cell growth inhibition (resazurin blue), MDA-1986; assay type: cell-based, human; conditions: 72 hours
# Description: (§3) Cell growth inhibition was determined in 96-well plates (3,000 cells/well in 100 μL, 12 replicates/sample) using highly invasive human breast cancer cells, MDA-MB-231, non-metastatic human breast cancer cells, MDA-MB-468, and highly invasive human head and neck squamous cell cancer cells positive for epithelia growth factor receptor, MDA-1986. Drug or conjugate solutions were applied after 24 hours, and 72 hours post-addition, resazurin blue in 10 μL of PBS was applied to each well (final concentration 5 μM).
# [12] = system: MDA-MB-468 cells; test: Cell growth inhibition (resazurin blue), MDA-MB-468; assay type: cell-based, human; conditions: 72 hours
# Description: as §3
# [13] = system: MDA-1986 cells; test: Nitric oxide release (Griess) in cell culture with MDA-1986 cells; assay type: cell-based, human
# Description: The fluorescence intensity was measured between 520 and 550 nm using a fluorescence microplate reader.
# The concentration of nitrite, the stable breakdown product of gaseous nitric oxide, was measured using Griess assay as an indirect measurement of nitric oxide concentration in cell culture media. The assay is based on the reaction between sulfanilamide, N-1-napthyethylenediamine dihydrochloride and nitrite, under acidic conditions to produce a […] azo compound.
# [14] = cited from earlier work
# [15] = 72 h; Star-GA on GA basis; read-out: IC50s HUVEC
smiles,measurement,setting,value
"C=CCNC1=C2C[C@@H](C)C[C@H](OC)[C@H](O)[C@@H](C)/C=C(\C)[C@H](OC(N)=O)[C@@H](OC)/C=C\C=C(/C)C(=O)NC(=CC1=O)C2=O [17-AAG, 17-allylamino-17-demethoxygeldanamycin]",IC50,[1],315 nM
same,IC50,[2]; [15],64000 nM
same,IC50,"[3]; 72 h, Star-GA on GA basis",825 nM
same,IC50,"[4]; 72 h, Star-GA on GA basis",53 nM
"CO[C@H]1/C=C\C=C(/C)C(=O)NC2=CC(=O)C(NCCN(C)C)=C(C[C@@H](C)C[C@H](OC)[C@H](O)[C@@H](C)/C=C(\C)[C@@H]1OC(N)=O)C2=O [17-DMAG, 17-dimethylaminoethylamino-17-demethoxygeldanamycin]",MTD,[5],15 mg/kg
same,physical signs of toxicities,[6]; B16F10 study doses,signs of tail necrosis
same,B16F10 tumor response,[6],did not exhibit statistically significant tumor growth inhibition
same,IC50,[1],296 nM
same,gross visualization of the organs,[7],appeared to have liver metastases
same,survival,[8],neither 17-DMAG nor star-GA treatments exhibited an increase in survival
same,4T1.2 Neu tumor response compared to non-treated mice,[8]; polymer 255 mg/kg,no statistical significances
same,IC50,[2]; [15],29000 nM
same,IC50,[9],189 nM
same,IC50,"[3]; 72 h, Star-GA on GA basis",250 nM
same,increase in in vitro toxicity in comparison to melphalan,[3]; B16F10 cell line,400 fold
same,IC50,"[4]; 72 h, Star-GA on GA basis",44 nM
"CCOC(=O)N1CCN(/[N+]([O-])=N/Oc2ccc([N+](=O)[O-])cc2[N+](=O)[O-])CC1 [JS-K, O^2-(2,4-Dinitrophenyl) 1-[(4-ethoxycarbonyl)piperazin-1-yl]diazen-1ium-1,2-diolate]","disease condition (modified RECIST), animal No. 1",[10]; 10 mg/kg on NO prodrug basis,PD (PD = Progressive Disease (>30% tumor growth))
same,"disease condition (modified RECIST), animal No. 2",[10]; 10 mg/kg on NO prodrug basis,Necrosis
same,"disease condition (modified RECIST), animal No. 3",[10]; 10 mg/kg on NO prodrug basis,PD (PD = Progressive Disease (>30% tumor growth))
same,"disease condition (modified RECIST), animal No. 4",[10]; 10 mg/kg on NO prodrug basis,PD (PD = Progressive Disease (>30% tumor growth))
same,"disease condition (modified RECIST), animal No. 5",[10]; 10 mg/kg on NO prodrug basis,Necrosis
same,"disease condition (modified RECIST), animal No. 6",[10]; 10 mg/kg on NO prodrug basis,PD (PD = Progressive Disease (>30% tumor growth))
same,tumor size,"[10]; JS-K i.v. six weeks after tumor cell implantation, sugar-NO1 s.c. same time frame, 10 mg/kg",approximately 1000 mm^3
same,animals euthanized,"[10]; within 7 weeks, tumor size exceeding 1000 mm^3 or necrosis of injection site on the tail",100%
same,IC50,[11],16000 ± 2000 nM
same,IC50,[12],42000 ± 4000 nM
"CC1CN([N+]([O-])=NOc2ccc([N+](=O)[O-])cc2[N+](=O)[O-])CCN1CCO (stereo not drawn) [NO2, O^2-(2,4-Dinitrophenyl) 1-[[4-(2-hydroxy)ethyl]-3-methylpiperazin-1-yl]diazen-1-ium-1,2-diolate]",Release half-life,[13],9.0 h
same,IC50,[11],57000 ± 6000 nM
same,IC50,[12],27000 ± 3000 nM
COC1=C2C[C@@H](C)C[C@H](OC)[C@H](O)[C@@H](C)/C=C(\C)[C@H](OC(N)=O)[C@@H](OC)/C=C\C=C(/C)C(=O)NC(=CC1=O)C2=O [geldanamycin],IC50,"[1]; Mus musculus, 4T1.2",260 nM
same,IC50,"[2]; Homo sapiens, HUVEC, 72 h; read-out: IC50s HUVEC",440 nM
same,IC50,"[9]; Homo sapiens, MDA-MB-231",963 nM
same,IC50,"[3]; Mus musculus, B16-F10, 72 h, Star-GA on GA basis",36 nM
same,IC50,"[4]; Homo sapiens, A2058, 72 h, Star-GA on GA basis",44 nM
N[C@@H](Cc1ccc(N(CCCl)CCCl)cc1)C(=O)O [melphalan],B16F10 tumor response,[6],complete response to treatment
same,IC50,"[2]; Homo sapiens, HUVEC, 72 h, read-out: IC50s HUVEC",209000 nM
same,IC50,"[3]; Mus musculus, B16-F10, 72 h",103000 nM
same,IC50,"[4]; Homo sapiens, A2058, 72 h",30000 nM
[N]=O [nitric oxide],half-life in vivo,[14],about 5 seconds
